Reference: patent publication US12207654B2, “Bactericidal agent for agricultural or horticultural use, plant disease control method, and product for plant disease control use” (Kureha Corporation, priority 2019, dated 2025)
Where “and” joins values, the source holds several entries; their conditions need not be identical. Equal entries are not always repeated.

Legend:
[1] = tested on: Pyrenophora graminea; assay: In vitro antimicrobial activity test on PDA plate media (colony diameter); format: cell-based; details: used alone
[2] = tested on: Cercospora beticola; assay: In vitro antimicrobial activity test in 96-well microplate (absorbance at 620 nm); format: cell-based; details: used alone
[3] = tested on: Colletotrichum lindemuthianum; assay: as above; format: cell-based; details: used alone
[4] = tested on: Pyrenophola teres; assay: In vitro antimicrobial activity test on PDA plate media (colony diameter); details: read-out: Actual fungal growth inhibition rate (%)
Text: Apart from this, Pyrenophola teres pre-cultivated on chemical-free plate media was punched out with a 4-mm diameter cork borer and inoculated on chemical-containing PDA plate media.
In the above formula, R represents the fungal growth inhibition rate (%), dc represents the colony diameter on the chemical-free plate, and dt represents the colony diameter on the chemical-containing plate. […] Inhibition rate when mixed for use(theoretical value)=α+((100−α)×β/100
In the above formula, α and β represent the inhibition rate when each compound is used alone.

[5] = tested on: wheat leaf rust (Puccinia recondita); assay: Controlling effect test against wheat leaf rust (foliar spray on potted wheat seedlings); format: in vivo; details: sprayed alone
[6] = tested on: Fusarium graminearum; assay: microbe, parasite or virus in culture; format: cell-based
[7] = tested on: Gaeumannomyces graminis; assay: In vitro antimicrobial activity test on PDA plate media (colony diameter); format: cell-based; details: used alone
[8] = tested on: Alternaria alternata apple pathotype; assay: as above; format: cell-based; details: used alone
[9] = tested on: Fusarium fujikuroi; assay: as above; format: cell-based; details: used alone
[10] = tested on: Glomerella cingulata; assay: as above; format: cell-based
[11] = tested on: Penicillium italicum; assay: as above; format: cell-based; details: Penicillium italicum; single chemical at 0.13 ppm
[12] = tested on: Microdocum nivale; assay: as above; format: cell-based; details: used alone

Cc1cccc(-n2nnn(C)c2=O)c1COc1ccn(-c2ccc(Cl)cc2)n1 [Metyltetraprole, metyltetraprole]
Actual fungal growth inhibition rate (%) ([1]; 0.001 ppm): 0% | Actual growth inhibition rate ([2]; 0.08 ppm): 72% | Actual growth inhibition rate ([3]; 0.08 ppm): 6% | Actual growth inhibition rate ([3]; 0.4 ppm): 73% | Actual growth inhibition rate ([3]; 2.0 ppm): 91%

COC(=O)Nc1nc2ccccc2[nH]1 [Carbendazim, carbendazim]
inhibition at 0.625 ppm [4]: 0% | inhibition at 2.5 ppm [4]: 6% | inhibition at 10 ppm [4]: 13% | inhibition at 40 ppm [4]: 14%

COC(=O)C(O)(Cn1cncn1)c1ccc(Oc2ccc(Cl)cc2)cc1Cl (stereo not drawn) [Azole derivative I-1, methyl 2-hydroxy-2-(2-chloro-4-(4-chlorophenoxy)phenyl)-3-(1H-1,2,4-triazole-1-yl)propanoate]
Actual controlling rate ([5]; 0.63 g/ha): 16% and 11% | Actual controlling rate ([5]; 1.25 g/ha): 40% and 67% | Actual controlling rate ([5]; 2.5 g/ha): 83% and 98% | inhibition at 0.25 ppm ([6]; Fusarium graminearum, read-out: Actual fungal growth inhibition rate (%)): 0% | inhibition at 0.01 ppm ([1]; Pyrenophora graminea, 0.01 ppm, read-out: Actual fungal growth inhibition rate (%)): 37% | inhibition at 0.03 ppm ([1]; Pyrenophora graminea, 0.03 ppm, read-out: Actual fungal growth inhibition rate (%)): 71% | inhibition at 0.5 ppm ([1]; Pyrenophora graminea, 0.50 ppm, read-out: Actual fungal growth inhibition rate (%)): 94% | Actual fungal growth inhibition rate (%) ([1]; 0.03 ppm): 70% and 68% | Actual fungal growth inhibition rate (%) ([1]; 0.13 ppm): 81% and 80% and 57% and 82% | Actual fungal growth inhibition rate (%) ([1]; 0.50 ppm): 95% and 93% | inhibition at 0.03 ppm ([7]; Gaeumannomyces graminis, 0.03 ppm, read-out: Actual fungal growth inhibition rate (%)): 31% | inhibition at 0.13 ppm ([7]; Gaeumannomyces graminis, 0.13 ppm, read-out: Actual fungal growth inhibition rate (%)): 94% | Actual fungal growth inhibition rate (%) ([7]; 0.03 ppm): 28% | Actual fungal growth inhibition rate (%) ([7]; 0.13 ppm): 93% | inhibition at 0.01 ppm ([8]; Alternaria alternata, 0.01 ppm, read-out: Actual fungal growth inhibition rate (%)): 0% | inhibition at 0.03 ppm ([8]; Alternaria alternata, 0.03 ppm, read-out: Actual fungal growth inhibition rate (%)): 0% | Actual fungal growth inhibition rate (%) ([8]; 0.13 ppm): 1% | inhibition at 0.01 ppm ([9]; Fusarium fujikuroi, 0.01 ppm, read-out: Actual fungal growth inhibition rate (%)): 0% | inhibition at 0.03 ppm ([9]; Fusarium fujikuroi, 0.03 ppm, read-out: Actual fungal growth inhibition rate (%)): 4% | inhibition at 0.5 ppm ([9]; Fusarium fujikuroi, 0.50 ppm, read-out: Actual fungal growth inhibition rate (%)): 59% | inhibition at 0.01 ppm ([10]; Colletotrichum gloeosporioides, used alone, 0.01 ppm, read-out: Actual fungal growth inhibition rate (%)): 0% | inhibition at 0.03 ppm ([10]; Colletotrichum gloeosporioides, used alone, 0.03 ppm, read-out: Actual fungal growth inhibition rate (%)): 9% | inhibition at 0.13 ppm ([10]; Colletotrichum gloeosporioides, used alone, 0.13 ppm, read-out: Actual fungal growth inhibition rate (%)): 49% | inhibition at 0.5 ppm ([10]; Colletotrichum gloeosporioides, used alone, 0.50 ppm, read-out: Actual fungal growth inhibition rate (%)): 77% | Actual fungal growth inhibition rate (%) ([10]; used alone, 0.50 ppm): 75% | inhibition at 0.02 ppm ([2]; Cercospora beticola, 0.02 ppm, read-out: Actual growth inhibition rate): 0% | inhibition at 0.5 ppm ([2]; Cercospora beticola, 0.5 ppm, read-out: Actual growth inhibition rate): 6% | inhibition at 2.5 ppm ([2]; Cercospora beticola, 2.5 ppm, read-out: Actual growth inhibition rate): 99% | inhibition at 0.1 ppm ([3]; Colletotrichum lindemuthianum, 0.10 ppm, read-out: Actual growth inhibition rate): 0% | inhibition at 0.25 ppm [4]: 48%

COC(=O)C(O)(Cn1cncn1)c1ccc(Oc2ccc(Cl)cc2)cc1Br (stereo not drawn) [Azole derivative I-228]
Actual fungal growth inhibition rate (%) [6]: 39% | Actual fungal growth inhibition rate (%) ([1]; 0.50 ppm): 84% | Actual fungal growth inhibition rate (%) ([7]; 0.13 ppm): 89% | Actual fungal growth inhibition rate (%) ([7]; 0.31 ppm): 63% | Actual fungal growth inhibition rate (%) ([7]; 1.25 ppm): 67% | Actual fungal growth inhibition rate (%) ([7]; 5.00 ppm): 71% | Actual fungal growth inhibition rate (%) ([9]; 0.50 ppm): 21% | Actual fungal growth inhibition rate (%) ([10]; Glomerella cingulata, single chemical at 0.01 ppm): 0% | Actual fungal growth inhibition rate (%) ([10]; Glomerella cingulata, single chemical at 0.03 ppm): 16% | Actual fungal growth inhibition rate (%) ([10]; used alone, 0.01 ppm): 2% | Actual fungal growth inhibition rate (%) ([10]; used alone, 0.03 ppm): 12% | Actual fungal growth inhibition rate (%) ([10]; used alone, 0.50 ppm): 82% | Actual fungal growth inhibition rate (%) [11]: 56% | Actual fungal growth inhibition rate (%) ([12]; 1.25 ppm): 56% | Actual fungal growth inhibition rate (%) ([12]; 5.00 ppm): 86%
